Source: EP2966448B1, “METHOD FOR THE PREDICTION OR PROGNOSIS OF THE RESPONSE OF A HUMAN SUBJECT SUFFERING FROM CANCER TO TREATMENT WITH AN ANTAGONIST OF THE NK1 RECEPTOR” (priority 2013, dated 2014)
Read-outs that look alike come from different tables or passages of the source.

Key:
[1] = tested on: Colon carcinoma; test: Inhibition of primary tumor cell cultures (48 hours) vs NK1 receptor immunostaining (Example 1); assay type: cell-based; conditions: Homo sapiens, 1 micromolar, read-out: Percentage of inhibition of cell cultures
Experimental: (§1) Cell cultures. To obtain tumor cells from human primary tumors we used the method described in De Bari et al. (De Bari et al. 2001). Briefly, small pieces of the tumors were digested into a hyaluronidase solution (Sigma-Aldrich, USA) at a concentration of 1 mg/ml during 15 minutes at 37°C, and then they were treated with 6 mg/ml of collagenase type IV (Invitrogen) during 2 hours at 37°C. Consecutively, cells were washed, and resuspended in the DMEM culture medium with high concentration of glucose (Dulbecco's Modified Eagle's Medium, Invitrogen) supplemented with 1% of antibiotics-antimycotics (Invitrogen) and with 1% of sodium pyruvate (Invitrogen), and the cells were seeded in culture slides at a concentration of 10.000 cells per square centimeter. When cells reached confluence, the adherent cells were separated using sterile trypsin at 0,5% (Invitrogen) and they were used among passages 3 and 9. For the assays shown next, tumor cells were seeded on slides at a concentration of 25.000 cells per well. A total of 6 wells containing the tumor cells were used as survival control. […] All the cultures were kept during 48 hours and later on recollected for their analysis.
(§2) Immunohistochemistry techniques. The presence of NK1 receptors was also analyzed using immunohistochemistry techniques. Briefly, a sample of each of the cultures of the cell lines used in the present invention, was centrifuged (5 minutes at 1.500 rpm) and the pellet obtained was dehydrated using increasing concentrations of ethanol and, finally, xylol. Then, said dehydrated samples were embedded in paraffin, creating a block of cells. Such paraffin blocks were cut with a microtome at 5 microns thickness, and were placed on microscope slides adequate to perform immunohistochemistry techniques. Consecutively, they were de-paraffinized by immersing them in xylol, to be finally hydrated using a solution containing decreasing concentrations of ethanol, and finally submerged them into water. […] After this, the samples were left to cool down at room temperature for 10 minutes. The endogenous peroxidase activity was blocked with 3% peroxide of hydrogen for 30 minutes at room temperature. After washing the samples with 0.05 M of Tris buffer, they were incubated with 10% non-immune pork serum at for 30 minutes at room temperature. To analyze the expression of NK1 receptors, the cellular samples were incubated in the presence of anti-NK1 antibodies (S8305, Sigma-Aldrich) diluted 1:1000, overnight at 4°C. Afterwards, the samples were washed in Tris buffer 0.05 M at room temperature. The next step was the addition of Envision System-HRP (Dako) reagents for 30 minutes at room temperature. Then, the samples were washed again in Tris buffer 0.05 M and the immunoreactivity was visualized through light microscopy with a chromogenic solution containing 3,3'-Diaminobenzidine (DAB+; Dako, USA). To differentiate the cell nuclei, they were slightly stained with hematoxylin. As negative control, it was used samples not incubated with the primary antibody anti-NK1, which was replaced by non-immune serum. All the samples were evaluated.
(§3) To value the immunostaining in each of the cases six cuts were performed to be analyzed by the immunohistochemistry technique. In each of the six cuts, it was counted cells in 20 fields (magnification 400x) using an Olympus microscope (model CX31). In each field it was counted the total number of cells and the number of cells presenting immunostaining, calculating afterwards the percentage of cells which presented immunostaining.

[2] = tested on: Pancreatic carcinoma; test: as above; assay type: cell-based; conditions: Homo sapiens, 1 micromolar, read-out: Percentage of inhibition of cell cultures
Experimental: as §1, §2, §3

[3] = tested on: Carcinoma of the uterine cervix; test: as above; assay type: cell-based; conditions: Homo sapiens, 1 micromolar, read-out: Percentage of inhibition of cell cultures
Experimental: as §1, §2, §3

[4] = tested on: Thyroid carcinoma (folliculary type); test: as above; assay type: cell-based; conditions: Homo sapiens, 1 micromolar, read-out: Percentage of inhibition of cell cultures
Experimental: as §1, §2, §3

[5] = tested on: Fibrosarcoma; test: as above; assay type: cell-based; conditions: Homo sapiens, 1 micromolar, read-out: Percentage of inhibition of cell cultures
Experimental: as §1, §2, §3

[6] = tested on: Malignant Fibrous Histiocytoma; test: as above; assay type: cell-based; conditions: Homo sapiens, 1 micromolar, read-out: Percentage of inhibition of cell cultures
Experimental: as §1, §2, §3

[7] = tested on: Non Hodgkin Lymphoma B; test: as above; assay type: cell-based; conditions: Homo sapiens, 1 micromolar, read-out: Percentage of inhibition of cell cultures
Experimental: as §1, §2, §3

[8] = tested on: Burkitt Lymphoma; test: as above; assay type: cell-based; conditions: Homo sapiens, 1 micromolar, read-out: Percentage of inhibition of cell cultures
Experimental: as §1, §2, §3

[9] = tested on: Gastric carcinoma (Adenocarcinoma); test: Inhibition of primary tumor cell cultures vs Kras mutation (Example 2); assay type: cell-based, human; conditions: Gastric carcinoma (Adenocarcinoma), 100 micromolar
Experimental: (§4) Cell cultures. […] Briefly, small pieces of the tumors were digested into a hyaluronidase solution (Sigma-Aldrich, USA) at a concentration of 1 mg/ml during 15 minutes at 37°C, and then they were treated with 6 mg/ml of collagenase type IV (Invitrogen) during 2 hours at 37°C. Consecutively, cells were washed, and resuspended in the DMEM culture medium with high concentration of glucose (Dulbecco's Modified Eagle's Medium, Invitrogen) supplemented with 1% of antibiotics-antimycotics (Invitrogen) and with 1% of sodium pyruvate (Invitrogen), and the cells were seeded in culture slides at a concentration of 10.000 cells per square centimeter. When cells reached confluence, the adherent cells were separated using sterile trypsin at 0,5% (Invitrogen) and they were used among passages 3 and 9. For the assays shown next, tumor cells were seeded on slides at a concentration of 25.000 cells per well. A total of 6 wells containing the tumor cells were used as survival control. […] All the cultures were kept during 48 hours and later on recollected for their analysis.
(§5) In each case the presence or not of mutations in K-ras gene was determined.
(§6) To determine the existence of mutations in the K-ras gene DNA from cancer tumor cells was extracted from samples obtained from the different cancer tumor cells, using DNA extraction kits from Takara (Madison, WI, US) or Ambion (Huntingdon, Cambridgeshire, United Kingdom), following the manufacturer's instructions, and as it has been previously published (Di Fiore F, et al. 2007). Consecutively it was analyzed by sequencing the exon 2 of the KRAS gene, , by means of PCR amplification from previously extracted cancer tumor DNA, using the following sense primer (SEQ ID NO. 15): 5'-[sequence]-3' and anti-sense primer (SEQ ID NO. 16): 5'-[sequence]-3'. After the purification using the Qiagen extraction kit, the PCR products were sequenced using the Big Dye Terminator Kit V3.1 (Applied Biosystems, Foster City, CA, U.S.) and an ABI Prism 377 or 3100 DNA sequencer (Applied Biosystems). The presence of a heterozygous mutation in the KRAS gene in cancer tumor cells of the cultures was defined as the appearance of a mutant peak of a height of at least a third of the wild type. All the sequence analysis were executed at least twice in two independent PCR.
(§7) The antibody against NK1 receptor (Table 16) was used at 1/50 concentration. The percentages of inhibition are expressed in percentage of variation in relation to control ± standard deviation.

[10] = tested on: Pancreatic carcinoma (Adenocarcinoma); test: as above; assay type: cell-based, human; conditions: Pancreatic carcinoma (Adenocarcinoma), 100 micromolar
Experimental: as §4, §5, §6, §7

[11] = tested on: Ovarian carcinoma (Adenocarcinoma); test: as above; assay type: cell-based, human; conditions: Ovarian carcinoma (Adenocarcinoma), 100 micromolar
Experimental: as §4, §5, §6, §7

[12] = tested on: Lung carcinoma (small cell lung carcinoma); test: as above; assay type: cell-based, human; conditions: Lung carcinoma (small cell lung carcinoma), 100 micromolar
Experimental: (§8) To obtain tumor cells from human primary tumors we used the method described in De Bari et al. (De Bari et al. 2001). Briefly, small pieces of the tumors were digested into a hyaluronidase solution (Sigma-Aldrich, USA) at a concentration of 1 mg/ml during 15 minutes at 37°C, and then they were treated with 6 mg/ml of collagenase type IV (Invitrogen) during 2 hours at 37°C. Consecutively, cells were washed, and resuspended in the DMEM culture medium with high concentration of glucose (Dulbecco's Modified Eagle's Medium, Invitrogen) supplemented with 1% of antibiotics-antimycotics (Invitrogen) and with 1% of sodium pyruvate (Invitrogen), and the cells were seeded in culture slides at a concentration of 10.000 cells per square centimeter. When cells reached confluence, the adherent cells were separated using sterile trypsin at 0,5% (Invitrogen) and they were used among passages 3 and 9. For the assays shown next, tumor cells were seeded on slides at a concentration of 25.000 cells per well. A total of 6 wells containing the tumor cells were used as survival control. […] All the cultures were kept during 48 hours and later on recollected for their analysis.
as §5, §6, §7

[13] = tested on: Thyroid carcinoma (papillary carcinoma); test: as above; assay type: cell-based, human; conditions: Thyroid carcinoma (papillary carcinoma), 100 micromolar
Experimental: as §8, §5, §6, §7

[14] = tested on: Undifferentiated Pleomorphic Sarcoma (malignant fibrous histiocytoma grade 3); test: as above; assay type: cell-based, human; conditions: Undifferentiated Pleomorphic Sarcoma (malignant fibrous histiocytoma grade 3), 100 micromolar
Experimental: as §1, §5, §6
(§9) The percentages of inhibition are expressed in percentage of variation in relation to control ± standard deviation.

[15] = tested on: Melanoma (Nodular Melanoma); test: as above; assay type: cell-based, human; conditions: Melanoma (Nodular Melanoma), 100 micromolar
Experimental: as §1, §5, §6, §9

[16] = tested on: Non Hodgkin Lymphoma B (diffuse B cell lymphoma); test: as above; assay type: cell-based, human; conditions: Non Hodgkin Lymphoma B (diffuse B cell lymphoma), 100 micromolar
Experimental: as §1, §5, §6, §9

[17] = tested on: human primary tumor cells; test: Inhibition of primary tumor cell cultures vs absence or presence of ERK  protein (Example 3; tumor type per table line); assay type: cell-based; conditions: 100 micromolar
Experimental: as §4
Consecutively, the cells were placed in cultures in the presence of several antagonists of the NK1 receptor.
In each case it was determined the presence or absence of the downstream effector in the MAP Kinases ERK pathway.
To determine the presence of the ERK protein, it was performed a Western Blot technique, using as primary antibody: Phospho-p44/42 MAPK (Erk1/2) (Thr202/Tyr204) (D13.14.4E) XP® Rabbit mAb (4370, Cell Signalling). To determine the presence of the MEK protein, it was performed the Western Blot technique, using as primary antibody Phospho-MEK1/2 (Ser217/221) (9121, Cell Signalling).
The antibody against NK1 receptor (Table 21) was used at 1/50 concentration. The percentages of inhibition are expressed in percentages of variation in relation to control ± standard deviation.

[18] = NK1 receptor immunostaining Group 1 (less than 20% of the cells)
[19] = NK1 receptor immunostaining Group 2 (20-80% of the cells)
[20] = NK1 receptor immunostaining Group 3 (more than 80% of the cells)
[21] = NK1 receptor immunostaining Intensity grade 1
[22] = NK1 receptor immunostaining Intensity grade 2
[23] = NK1 receptor immunostaining Intensity grade 3
[24] = Cases with Kras non-mutated (wild type)

SMILES: Cc1cc(F)ccc1[C@H]1CNCCN1C(=O)N(C)[C@H](C)c1cc(C(F)(F)F)cc(C(F)(F)F)c1 [Vestipitant]
- inhibition at 1 µM [1, 18]: 12 ± 4%
- inhibition at 1 µM [1, 19]: 45 ± 3%
- inhibition at 1 µM [1, 20]: 91 ± 2%
- inhibition at 1 µM [1, 21]: 18 ± 5%
- inhibition at 1 µM [1, 22]: 46 ± 4%
- inhibition at 1 µM [1, 23]: 91 ± 5%
- inhibition at 1 µM [2, 18]: 11 ± 3%
- inhibition at 1 µM [2, 19]: 45 ± 2%
- inhibition at 1 µM [2, 20]: 91 ± 3%
- inhibition at 1 µM [2, 21]: 21 ± 4%
- inhibition at 1 µM [2, 22]: 47 ± 5%
- inhibition at 1 µM [2, 23]: 91 ± 5%
- inhibition at 1 µM [3, 18]: 17 ± 4%
- inhibition at 1 µM [3, 19]: 46 ± 3%
- inhibition at 1 µM [3, 20]: 94 ± 4%
- inhibition at 1 µM [3, 21]: 19 ± 3%
- inhibition at 1 µM [3, 22]: 48 ± 3%
- inhibition at 1 µM [3, 23]: 94 ± 3%
- inhibition at 1 µM [4, 18]: 16 ± 3%
- inhibition at 1 µM [4, 19]: 45 ± 3%
- inhibition at 1 µM [4, 20]: 95 ± 5%
- inhibition at 1 µM [4, 21]: 19 ± 4%
- inhibition at 1 µM [4, 22]: 46 ± 4%
- inhibition at 1 µM [4, 23]: 95 ± 3%
- inhibition at 1 µM [5, 18]: 16 ± 3%
- inhibition at 1 µM [5, 19]: 45 ± 3%
- inhibition at 1 µM [5, 20]: 91 ± 3%
- inhibition at 1 µM [5, 21]: 18 ± 2%
- inhibition at 1 µM [5, 22]: 47 ± 3%
- inhibition at 1 µM [5, 23]: 91 ± 2%
- inhibition at 1 µM [6, 18]: 15 ± 4%
- inhibition at 1 µM [6, 19]: 46 ± 4%
- inhibition at 1 µM [6, 20]: 91 ± 5%
- inhibition at 1 µM [6, 21]: 17 ± 3%
- inhibition at 1 µM [6, 22]: 48 ± 4%
- inhibition at 1 µM [6, 23]: 91 ± 5%
- inhibition at 1 µM [7, 18]: 14 ± 3%
- inhibition at 1 µM [7, 19]: 45 ± 5%
- inhibition at 1 µM [7, 20]: 93 ± 5%
- inhibition at 1 µM [7, 21]: 16 ± 4%
- inhibition at 1 µM [7, 22]: 47 ± 5%
- inhibition at 1 µM [7, 23]: 93 ± 4%
- inhibition at 1 µM [8, 18]: 12 ± 3%
- inhibition at 1 µM [8, 19]: 45 ± 3%
- inhibition at 1 µM [8, 20]: 92 ± 4%
- inhibition at 1 µM [8, 21]: 15 ± 3%
- inhibition at 1 µM [8, 22]: 47 ± 5%
- inhibition at 1 µM [8, 23]: 92 ± 6%
- Percentage of inhibition of cell cultures ([9]; Cases with Kras mutated): 24±4 percentage
- Percentage of inhibition of cell cultures [9, 24]: 96±4 percentage
- Percentage of inhibition of cell cultures ([10]; Cases with Kras mutated): 24±4 percentage
- Percentage of inhibition of cell cultures [10, 24]: 97±4 percentage
- Percentage of inhibition of cell cultures ([11]; Cases with Kras mutated): 27±5 percentage
- Percentage of inhibition of cell cultures [11, 24]: 96±6 percentage
- Percentage of inhibition of cell cultures ([12]; Cases with Kras mutated): 23±4 percentage
- Percentage of inhibition of cell cultures [12, 24]: 95±4 percentage
- Percentage of inhibition of cell cultures ([13]; Cases with Kras mutated): 26±4 percentage
- Percentage of inhibition of cell cultures [13, 24]: 94±5 percentage
- Percentage of inhibition of cell cultures ([14]; Cases with Kras mutated): 26±4 percentage
- Percentage of inhibition of cell cultures [14, 24]: 95±6 percentage
- Percentage of inhibition of cell cultures ([15]; Cases with Kras mutated): 23±5 percentage
- Percentage of inhibition of cell cultures [15, 24]: 96±5 percentage
- Percentage of inhibition of cell cultures ([16]; Cases with Kras mutated): 24±4 percentage
- Percentage of inhibition of cell cultures [16, 24]: 97±6 percentage
- Percentage of inhibition of cell cultures ([17]; Breast carcinoma (ductal adenocarcinoma), cases with presence of ERK): 94±3 percentage
- Percentage of inhibition of cell cultures ([17]; Breast carcinoma (ductal adenocarcinoma), cases without presence of ERK): 26±4 percentage
- Percentage of inhibition of cell cultures ([17]; Burkitt Lymphoma, cases with presence of ERK): 93±5 percentage
- Percentage of inhibition of cell cultures ([17]; Burkitt Lymphoma, cases without presence of ERK): 26±4 percentage
- Percentage of inhibition of cell cultures ([17]; Carcinoma of the uterine cervix (Squamous cell carcinoma), cases with presence of ERK): 94±4 percentage
- Percentage of inhibition of cell cultures ([17]; Carcinoma of the uterine cervix (Squamous cell carcinoma), cases without presence of ERK): 29±3 percentage
- Percentage of inhibition of cell cultures ([17]; Colon carcinoma (Adenocarcinoma), cases with presence of ERK): 94±3 percentage
- Percentage of inhibition of cell cultures ([17]; Colon carcinoma (Adenocarcinoma), cases without presence of ERK): 23 percentage
- Percentage of inhibition of cell cultures ([17]; Endometrium carcinoma, cases with presence of ERK): 93±3 percentage
- Percentage of inhibition of cell cultures ([17]; Endometrium carcinoma, cases without presence of ERK): 28±5 percentage
- Percentage of inhibition of cell cultures ([17]; Gastric carcinoma (Adenocarcinoma), cases with presence of ERK): 95±3 percentage
- Percentage of inhibition of cell cultures ([17]; Gastric carcinoma (Adenocarcinoma), cases without presence of ERK): 24±4 percentage
